In patent US6403652B1, “Method and composition” (Colgate-Palmolive Company, priority 2000, dated 2002) one finds MIC data, which are given here for four compounds.

In brackets after ≈: the same amount, converted by molar mass. Read-outs that look alike come from different tables or passages of the source.

Type in all cases: cell-based
The test system of test [1] is Staphylococcus Aureus. Description: MIC by Broth Dilution Method against Staphylococcus Aureus. As to conditions: 37° C., visible growth. Here is the method:
Antimicrobial activity of several compounds was measured by determining the minimum inhibitory concentration (MIC). MIC is defined as the lowest concentration of an antimicrobial agent that will inhibit the growth of a microorganism and is usually expressed as ppm (μg/mL). MIC was determined by the Broth Dilution Method. To determine MIC a series of culture tubes was prepared, each tube containing the growth medium (Broth) with a decreasing concentration of the antimicrobial agent. The tubes were then inoculated with the test organism and incubated at 37° C. After incubation, tubes were visually examined for growth as indicated by turbidity. The lowest concentration that prevented visible growth is the MIC.
A general note: Broth dilution looks for growth in wells or tubes with falling amounts of substance.

The test system of test [2] is Staphylococcus Aureus isolate SA124 (susceptible). Description: MIC in multiwell plate broth dilution, isolate SA124. Here is the method: (§1) 1. The following Staphylococcus Aureus isolates were tested:
(§2) 2. 2-t-butyl-5-(4-t-butylphenyl)-phenol (DTBBP) was dissolved in ethanol to a concentration of 1000 μg/mL. Higher concentrations could not be tested due to the formation of precipitate in the broth when higher concentrations were attempted.
(§3) 3. 100 μl of the 32 μg/ml solution added to column 12 of the multiwell plates, 50 μl M—H broth to each of the other columns. 50 μl removed from 12 to 11 for 1:1 dilution, continued to column 2. 50 μl removed from column 2 and discarded. Column 1 contained no drug. To control for the amount of ethanol added to each well, additional wells were set up as described above without DTBBP but with the same amount of ethanol as the test wells.
(§4) 4. 50 μl bacteria added to each well going from column 1 to column 12. All isolates run in duplicate with and without DTBBP.
(§5) 5. Addition of 50 μl bacteria to 50 μl drug dilutes both 1:1 for a final bacterial density of 5×10^5/ml and drug concentrations of:
(§6) 6. Incubated overnight at 37° C.

Test [3] deals with Staphylococcus Aureus isolate SA76 (resistant to methicillin, azithromycin, clarithromycin, erythromycin, ciprofloxacin). Put plainly: MIC in multiwell plate broth dilution, isolate SA76. How it is done:
as §1, §2, §3, §4, §5, §6

The subject of test [4] is Staphylococcus Aureus isolate SA15 (susceptible). Put plainly: MIC in multiwell plate broth dilution, isolate SA15. How it is done: as §1, §2, §3, §4, §5, §6
Test [5] relates to Staphylococcus Aureus isolate SA6 (susceptible to all drugs). Description: MIC in multiwell plate broth dilution, isolate SA6. Here is the method:
as §1, §2, §3, §4, §5, §6

Test [6] deals with Staphylococcus Aureus isolate SA100 (resistant to methicillin only). Put plainly: MIC in multiwell plate broth dilution, isolate SA100. Here is the method: as §1, §2, §3, §4, §5, §6
The nature of test [7]: MIC in multiwell plate broth dilution, isolate SA22. As to conditions: Staphylococcus aureus. How it is done: as §1, §2, §3, §4, §5, §6

The MIC is the lowest concentration that inhibits growth of the organism.

For `CC(C)(C)c1cc(C2CCCCC2)ccc1O` [2-t-butyl-4-cyclohexylphenol], in test [1], the minimal inhibitory concentration (MIC) was below 10 µg/mL.

Consider `CCCCCCCCc1ccc(O)c(C(C)(C)C)c1` [2-t-butyl-4-n-octylphenol], for which the MIC in test [1] is below 10 µg/mL.

Compound `CC(C)(C)c1ccc(C2CCC(C(C)(C)C)CC2)cc1O` (stereo not shown) [2-t-butyl-5-(4-t-butylcyclohexyl)-phenol] displayed a minimum inhibitory concentration (MIC) in test [1] below 10 µg/mL.

For the compound `CC(C)(C)c1ccc(-c2ccc(C(C)(C)C)c(O)c2)cc1` [DTBBP, 2-t-butyl-5-(4-t-butylphenyl)-phenol], the MIC in test [2] (isolate SA124, 24 hr, read-out: DTBBP MIC (24 hr)) was 2 µg/mL (≈ 7.08 µM); in test [2] (isolate SA124, 48 hr, read-out: DTBBP MIC (48 hr)) it was 4 µg/mL (≈ 14.2 µM); in test [3] (isolate SA76, 24 hr, read-out: DTBBP MIC (24 hr)), 2 µg/mL (≈ 7.08 µM); in test [3] (isolate SA76, 48 hr, read-out: DTBBP MIC (48 hr)), 4 µg/mL (≈ 14.2 µM); in test [4] (isolate SA15, 24 hr, read-out: DTBBP MIC (24 hr)), 2 µg/mL (≈ 7.08 µM); in test [4] (isolate SA15, 48 hr, read-out: DTBBP MIC (48 hr)), 4 µg/mL (≈ 14.2 µM). Besides, the MIC in test [5] (isolate SA6, 24 hr, read-out: DTBBP MIC (24 hr)) was 2 µg/mL (≈ 7.08 µM); in test [5] (isolate SA6, 48 hr, read-out: DTBBP MIC (48 hr)), 4 µg/mL (≈ 14.2 µM); in test [6] (isolate SA100, 24 hr, read-out: DTBBP MIC (24 hr)), 4 µg/mL (≈ 14.2 µM); in test [6] (isolate SA100, 48 hr, read-out: DTBBP MIC (48 hr)), 4 µg/mL (≈ 14.2 µM); in test [1] it was below 1 µg/mL; in test [7] (isolate SA22, 24 hr, read-out: DTBBP MIC (24 hr)) it was 2 µg/mL (≈ 7.08 µM). Besides, in test [7] (isolate SA22, 48 hr, read-out: DTBBP MIC (48 hr)), the minimal inhibitory concentration (MIC) was 2 µg/mL (≈ 7.08 µM).
